Assay [1] concerns HT-29 cells. Put plainly: [3H]Thymidine incorporation cell proliferation assay in HT-29 cells. The format is cell-based, human. To be noted: 30 μM, three days. As for the experimental part: The stilbenes illustrated in FIG. 4 were also used to investigate their ability to inhibit cell proliferation in HT-29 cell line. In this experiment, HT-29 cells (20,000 cells/well in 24-well plate) were treated with the respective stilbenes (each used either at 30 μM or 3 μM) in 10% FBS/DMEM for three days.
(§1) Human colon carcinoma cell lines HT-29 was obtained from the American Type Culture Collection (Manassas, Va.). The cells were maintained in Dulbecco's modification of Eagle's medium (DMEM) supplemented with 10% FBS and 1% penicillin/streptomycin at 37° C. and 5% CO2. The cytokine mixture, consisting of 10 ng/ml of TNF-α, IFN-γ and LPS, was used to induce iNOS and COX-2, unless otherwise mentioned. The cells were treated with the test compound either alone or in combination with cytokines for different time intervals and harvested for protein or RNA.
HT-29 cells were plated at a density of 20,000 cells/well in a 24 well plate and treated with varying concentrations of pterostilbene for a period of 1, 2 or 3 days at 37° C. Before harvest, the cells were incubated with 1 μCi [^3H]thymidine for 4 h at 37° C. and were washed with phosphate buffered saline. The cells were precipitated with cold 10% trichloroacetic acid for 10 min and solubilized with 0.5 ml solubilization buffer (0.2 M NaOH, 40 μg/ml salmon sperm DNA) for 2 h at room temperature. The lysate was transferred to 5 ml Ecolume and the [3H]thymidine incorporated into the DNA of HT-29 cells was determined using a scintillation spectrometer (Beckman Coulter, Fullerton, Calif.).
On the technique in general: Dividing cells build labelled thymidine or BrdU into new DNA.

The subject of assay [2] is iNOS. Put plainly: Cytokine-induced iNOS protein expression in HT-29 cells (Western blot). To be noted: stilbene analogs each at 10 μM, 15 hours, HT-29, Western blot. The assay is classed as cell-based, human. As for the experimental part: HT-29 human colon adenocarcinoma cells were grown in 10% FBC/DMEM. Cells (about 600,000 cells/well) were plated in 6-well plate and treated with stilbene analogs shown in FIG. 4 (each at 10 μM) for 15 hours together with cytokine mixture comprising TNF-a, IFN0g, and LPS (each at 10 ng/ml). Cell lysates were prepared and subjected to Western Blot analysis.
as §1
The cell culture conditions and the reagents used in this example were described in Example 32. Whole cell extracts were collected after the various treatments and analyzed by western blotting. The protein samples were separated on 4-15% SDS-PAGE gels (Biorad, Hercules, Calif.) followed by transfer to a polyvinylidene fluoride membrane. The membranes were blocked with 5% milk in Tris buffer for 1 h and then incubated with the appropriate primary antibody solutions overnight at 4° C. The membranes were washed with Tris buffer, and incubated with horseradish peroxidase conjugated secondary antibody solutions for 1 h at room temperature.
The protein bands were visualized using a chemiluminescence based kit from Amersham Biosciences (Buckinghamshire, UK). The primary antibodies against iNOS, COX-2, IκBα, cyclin D1, c-myc (Santa Cruz Bio-technology, Santa Cruz, Calif.), phospho-STAT3, phospho-Erk1/2, phospho-JNK1/2, phospho-p38, phospho-Akt, phospho-ATF2, phospho-Elk1, PARP (Cell Signaling Technology Inc., Beverly, Mass.) and actin (Sigma, St. Louis, Mo.) and secondary antibodies (Santa Cruz Biotechnology, Santa Cruz, Calif.) were used for probing the abundance of the target protein in the samples.
(A western blot detects proteins with antibodies after separation by electrophoresis.)

Assay [3] has as its system AOM-induced rat colon carcinogenesis. The conditions noted are these: 100 ppm; cited from earlier work.
The subject of assay [4] is AOM-induced colonic ACF. To be noted: F344 rats; L-N6-(1-iminoethyl)lysine tetrazoleamide at 100 ppm; cited from earlier work.
Assay [5] has as its system colorectal aberrant crypt foci (ACF). To be noted: rats; cited from earlier work.

`COc1ccc(/C=C/c2cc(OC)cc(OC)c2)cc1` [ARS-8, (E)-1,3-dimethoxy-5-(4-methoxystyryl)benzene]: the “proliferation of HT-29 cells” value in assay [1] was “inhibited proliferation”. Consider `COc1ccc(/C=C\c2cc(OC)cc(OC)c2)cc1` [ARS-9, (Z)-1,3-dimethoxy-5-(4-methoxystyryl)benzene], for which, in assay [2], the “induction of iNOS protein expression by cytokine mixture” value is “inhibited”. Further, the “proliferation of HT-29 cells” value in assay [1] was “inhibited proliferation”. For the molecule `C[C@H]1CC(=N)N[C@@H]2[C@H](Cl)[C@@H]21.Cl` [ONO-1714, [1S,5S,6R,7R]-7-chloro-3-imino-5-methyl-2 azabicyclo[4.1.0]heptane hydrochloride], the “AOM-induced rat colon carcinogenesis” value in assay [3] was “inhibitory effect”.

Turning to `N=C(N)SCCc1ccc(CCSC(=N)N)cc1` [PBIT, S,S′-1,4-phenylene-bis(1,2-ethanediyl)bis-isothiourea], the “AOM-induced colonic ACF” value in assay [4] was “inhibitory effects”. Turning to `Oc1ccc(C=Cc2cc(O)cc(O)c2)cc1` [Resveratrol], in assay [5], the “growth of colorectal aberrant crypt foci (ACF)” value is on record as “reduce the growth”. Consider “L-N^6-(1-iminoethyl)lysine tetrazoleamide”, for which the “AOM-induced colonic ACF” value in assay [4] is reported as “significantly suppress”.

These data come from patent US8426369B2, “Prevention and treatment of colon cancer” (Rutgers, The State University of New Jersey, priority 2006, dated 2013).
